Biological target: T1, SETD2 (1347-1711) (Homo sapiens, UniProt Q9BYW2)
T1 sequence (Q9BYW2 1347-1711): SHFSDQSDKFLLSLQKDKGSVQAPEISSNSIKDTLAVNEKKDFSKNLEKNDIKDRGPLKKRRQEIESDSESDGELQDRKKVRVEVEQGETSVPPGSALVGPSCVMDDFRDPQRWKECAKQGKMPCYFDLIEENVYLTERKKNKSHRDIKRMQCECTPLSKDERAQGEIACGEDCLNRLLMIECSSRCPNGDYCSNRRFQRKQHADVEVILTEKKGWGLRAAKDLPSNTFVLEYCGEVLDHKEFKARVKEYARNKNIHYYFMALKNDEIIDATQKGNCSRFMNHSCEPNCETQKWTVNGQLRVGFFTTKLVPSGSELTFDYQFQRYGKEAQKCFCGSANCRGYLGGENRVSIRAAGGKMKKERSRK
Experiment: Filter-paper methylation assay, SETD2
Format: biochemical

## Nc1ncnc2c1ncn2C1OC(CC(CCC(N)C(=O)O)NCc2ccccc2)C(O)C1O (stereo not shown) [Compound 110]
  IC50: 500 nM
